In PMC5247774 (Bioconjugate Chemistry, 2016):

Biological target: T1, SERPINB3 (SB3) (Homo sapiens, UniProt P29508)
T1 sequence (P29508 1-390): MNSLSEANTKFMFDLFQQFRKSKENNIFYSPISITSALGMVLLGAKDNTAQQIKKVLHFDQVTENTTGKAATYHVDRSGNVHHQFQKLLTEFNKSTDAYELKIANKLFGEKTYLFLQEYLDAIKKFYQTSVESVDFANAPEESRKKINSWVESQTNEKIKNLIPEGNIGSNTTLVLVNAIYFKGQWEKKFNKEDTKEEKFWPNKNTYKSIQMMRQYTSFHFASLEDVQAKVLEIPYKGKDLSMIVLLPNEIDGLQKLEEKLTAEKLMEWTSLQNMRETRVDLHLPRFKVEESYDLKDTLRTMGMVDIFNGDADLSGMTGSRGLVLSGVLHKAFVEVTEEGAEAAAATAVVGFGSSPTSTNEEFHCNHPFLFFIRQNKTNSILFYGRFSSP
Format: binding
Settings: SPR, increasing concentrations

Sequence: CPNFDWDPNNSNAGFAPDLQHDPFFGLP [CysPreS1]
- interaction with SB3 (in words): did not reveal any interaction
